These results are taken from patent US10961264B2, “Process for isolating a (thio)phosphoric acid derivative” (BASF SE, priority 2015, dated 2021).

The conditions of data set [1]: as described in U.S. Pat. No. 8,513,460 B1; cited from earlier work.
Data set [2] in a line: Solubility of the (thio)phosphoric acid derivative in process solvents. It counts as physicochemical.

Regarding `CCCCNP(N)(N)=S` [NBPT, N-(n-butyl)thiophosphoric acid triamide], in data set [1], the dissolution in toluene entry was “can be dissolved”.
In the case of `CCCNP(N)(N)=S` [NPPT, N-(n-propyl)thiophosphoric acid triamide], the solubility in dichloromethane entry in data set [2] (dichloromethane, even at higher temperatures of 30° C. to 80° C.) is on record as “poor solubility”. Moreover, the “dissolution in dichloromethane in amounts comparable to NBPT” value in data set [2] (dichloromethane, same conditions as NBPT) was “not possible to dissolve”. Further, in data set [2] (ethyl acetate, upon moderate heating, precipitates again on cooling to room temperature), the “dissolution in ethyl acetate” value is listed as “can be dissolved to a large extent”. For the same compound, the “solubility in aromatic solvents such as toluene” value in data set [2] (toluene, even at higher temperatures of 30° C. to 80° C.) is given as “poor solubility”. Further, the “dissolution in toluene in amounts comparable to NBPT” value in data set [2] (toluene, same conditions as NBPT) is recorded as “not possible to dissolve”. Moreover, in data set [2] (toluene, upon heating the product mixture (work-up of U.S. Pat. No. 8,513,460 B1)), the solubility in toluene result is given as “not sufficiently soluble”.
